Laboratory results: patent US20110046235A1, “PRODUCTS COMPRISING, AND USES OF, DECARBOXYLATED PHENOLIC ACIDS DERIVED FROM CHLOROGENIC ACIDS OF COFFEE” (NESTEC S.A., priority 2008, published 2011)

Legend:
Nrf2 = assay: Antioxidant Responsive Element (ARE) luciferase assay; assay type: cell-based, human; details: 24 h, AREc 32 (MCF7) cells
Text: The pGL-8×ARE which contains eight copies of the ARE present in rat glutathione-S-transferase A2 (GSTA2) along with the pcDNA3.1 plasmid containing the neomycin selectable marker was stably transfected into human MCF7 cells (Wang et al., Cancer Res. 66, 10983-10994, 2006). ARE (antioxidant-responsive element) is the binding site of the transcription factor Nrf2 which regulates the genes involved in detoxification and endogenous defence against oxidative stress. The plasmid pGL-8×ARE contains a luciferase gene downstream of the eight Nrf2 binding sites that allows monitoring Nrf2 activity. The AREc 32 cells were seeded in 96-well microtiter plates in DMEM growth medium. After treatment with 4-vinylcatechol for 24 h firefly luciferase activity was determined.

[1] = tested on: PGE2 production in HT-29 cells; assay: Prostaglandin E2 formation assay; assay type: cell-based, human; details: 15 h then 6 h with TNF-α 10 ng/ml
Description: Human colon HT-29 cells were treated with 4-vinylcatechol for 15 h followed by a co-incubation of 6 h together with a pro-inflammatory agent TNF-α (10 ng/ml). Analysis of the PGE2 production in HT-29 cells was determined using a competitive enzyme immunoassay (EIA) (Cavin et al., BBRC 327, 742-49, 2005).

Compound: C=Cc1ccc(O)c(O)c1 [4-vinylcatechol]
- firefly luciferase activity (induction of Nrf2 activity) (Nrf2; 4-vinylcatechol 200 μg/ml): 16 AU
- firefly luciferase activity (induction of Nrf2 activity) (Nrf2; 4-vinylcatechol 400 μg/ml): 41 AU
- firefly luciferase activity (induction of Nrf2 activity) (Nrf2; 4-vinylcatechol 600 μg/ml): 22 AU
- PGE2 formation ([1]; 4-vinylcatechol 3.13 μg/ml): 58 % of control
- PGE2 formation ([1]; 4-vinylcatechol 6.25 μg/ml): 46 % of control
- PGE2 formation ([1]; 4-vinylcatechol 9.38 μg/ml): 21 % of control
- PGE2 formation ([1]; 4-vinylcatechol 15.63 μg/ml): 12 % of control
- PGE2 formation ([1]; 4-vinylcatechol 31.25 μg/ml): 5 % of control
- PGE2 formation ([1]; 4-vinylcatechol 62.5 μg/ml): 2 % of control
